# Where a name gives a salt, the structure may show the parent alone.
# Target: human GlyT1c transporter (Homo sapiens (Human), UniProt P48067)
# Assay: Radioligand binding assay using recombinant CHO cell membranes expressing human GlyT1
# Details: human GlyT1c-expressing CHO cell membranes; read-out: radioligand binding Kiapp
# Excerpt: 2. Radioligand binding assays using recombinant CHO cell membranes expressing human GlyT1: […]
# human GlyT1c transporter, sequence (P48067 whole entry): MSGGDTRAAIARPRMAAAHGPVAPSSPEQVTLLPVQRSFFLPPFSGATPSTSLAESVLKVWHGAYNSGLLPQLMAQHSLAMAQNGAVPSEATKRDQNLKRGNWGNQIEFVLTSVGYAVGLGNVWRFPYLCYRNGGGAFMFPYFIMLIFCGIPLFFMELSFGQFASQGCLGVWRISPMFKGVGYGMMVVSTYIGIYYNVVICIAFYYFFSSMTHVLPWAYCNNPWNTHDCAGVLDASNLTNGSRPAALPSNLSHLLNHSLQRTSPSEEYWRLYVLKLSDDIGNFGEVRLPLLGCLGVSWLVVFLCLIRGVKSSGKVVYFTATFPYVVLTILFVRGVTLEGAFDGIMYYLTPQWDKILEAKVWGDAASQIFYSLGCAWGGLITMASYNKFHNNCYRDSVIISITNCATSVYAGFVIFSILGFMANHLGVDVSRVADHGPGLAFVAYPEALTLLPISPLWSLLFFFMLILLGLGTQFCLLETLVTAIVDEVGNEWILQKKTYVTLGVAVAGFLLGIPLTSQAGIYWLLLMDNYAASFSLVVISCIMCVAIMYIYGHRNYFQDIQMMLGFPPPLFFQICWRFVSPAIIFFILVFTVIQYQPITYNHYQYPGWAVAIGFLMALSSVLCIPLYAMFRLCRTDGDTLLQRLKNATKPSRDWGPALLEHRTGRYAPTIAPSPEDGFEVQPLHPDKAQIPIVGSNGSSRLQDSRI
row,Structure (SMILES),Ki
1,"CNC1CCc2ccc(OCCNS(=O)(=O)c3ccn(C)c3)cc2C1Cc1cc(F)cc(F)c1 (single isomer, unassigned; enantiomer 2) [Example 242, Enantiomer 2 of N-(2-{[8-(3,5-difluorobenzyl)-7-(methylamino)-5,6,7,8-tetrahydronaphthalen-2-yl]oxy}ethyl)-1-methyl-1H-pyrrole-3-sulfonamide hydrochloride]",≤ 10 nM
2,"Cn1cnc(S(=O)(=O)NCc2ccc3c(c2)C(Cc2ccccc2)C(N2CCC2)CC3)c1 (single isomer, unassigned; enantiomer 1) [Example 252, Enantiomer 1 of N-{[7-(azetidin-1-yl)-8-benzyl-5,6,7,8-tetrahydronaphthalen-2-yl]methyl}-1-methyl-1H-imidazole-4-sulfonamide]",≤ 10 nM
3,"CCCS(=O)(=O)N(C)CCCc1ccc2c(c1)C(Cc1ccc(Cl)cc1)C(N)CC2 (stereo not drawn) [Example 234, N-{3-[7-Amino-8-(4-chlorobenzyl)-5,6,7,8-tetrahydronaphthalen-2-yl]propyl}-N-methylpropane-1-sulfonamide hydrochloride]",≤ 100 nM
4,"O=S(=O)(CC1CC1)NCCOc1ccc2c(c1)C(Cc1ccccc1)C(N1CCC1)CC2 (single isomer, unassigned; (-)) [Example 143, (−)-N-(2-(7-(azetidin-1-yl)-8-benzyl-5,6,7,8-tetrahydronaphthalen-2-yloxy)ethyl)-1-cyclopropylmethanesulfonamide]",≤ 10 nM
5,"Cn1cnc(S(=O)(=O)NCCOc2ccc3c(c2)C(Cc2cc(F)cc(Cl)c2)C(N2CCC2)CC3)c1 (stereo not drawn) [Example 160, N-(2-{[7-(Azetidin-1-yl)-8-(3-chloro-5-fluorobenzyl)-5,6,7,8-tetrahydronaphthalen-2-yl]oxy}ethyl)-1-methyl-1H-imidazole-4-sulfonamide(2E)-but-2-enedioate]",≤ 10 nM
6,"CNC1CCc2ccc(OCCNS(=O)(=O)CC3CC3)cc2C1Cc1ccccc1 (stereo not drawn) [Example 137, N-(2-{[8-Benzyl-7-(methylamino)-5,6,7,8-tetrahydronaphthalen-2-yl]oxy}ethyl)-1-cyclopropylmethanesulfonamide hydrochloride]",≤ 10 nM
7,"CCC(=O)NCCOc1ccc2c(c1)C(Cc1ccccc1)C(N)CC2 (stereo not drawn) [Example 103, N-[2-(7-Amino-8-benzyl-5,6,7,8-tetrahydro-naphthalen-2-yloxy)-ethyl]-propionamide hydrochloride]",≤ 10000 nM

# The next lines start with the values.
row,Ki,Structure (SMILES)
1,≤ 10 nM,"NC1CCc2ccc(OCCNS(=O)(=O)CC3CC3)cc2C1Cc1cccc(Cl)c1 (stereo not drawn) [Example 288, N-{2-[7-Amino-8-(3-chloro-benzyl)-5,6,7,8-tetrahydro-naphthalen-2-yloxy]-ethyl}-C-cyclopropyl-methanesulfonamide hydrochloride]"
2,≤ 10 nM,"CNC1CCc2ccc(OCCNS(=O)(=O)CC3CC3)cc2C1Cc1cccc(Cl)c1 (stereo not drawn) [Example 300, N-{2-[8-(3-Chloro-benzyl)-7-methylamino-5,6,7,8-tetrahydro-naphthalen-2-yloxy]-ethyl}-C-cyclopropyl-methanesulfonamide hydrochloride]"
3,≤ 100 nM,"CC(=O)NC1CCc2ccc(OCCNS(=O)(=O)CC3CC3)cc2C1Cc1cccc(Cl)c1 (stereo not drawn) [Example 306, N-[1-(3-Chloro-benzyl)-7-(2-cyclopropylmethanesulfonylamino-ethoxy)-1,2,3,4-tetrahydronaphthalen-2-yl]-acetamide]"
4,≤ 1000 nM,"CCCS(=O)(=O)NCCCc1ccc2c(c1)C(Cc1ccccc1)C(NC(C)C)CC2 (stereo not drawn) [Example 273, N-{3-[8-Benzyl-7-(propan-2-ylamino)-5,6,7,8-tetrahydronaphthalen-2-yl]propyl}propane-1-sulfonamide hydrochloride]"
5,≤ 100 nM,"CCCS(=O)(=O)N(CCOc1ccc2c(c1)C(Cc1ccccc1)C(N)CC2)C1CC1 (stereo not drawn) [Example 282, Propane-1-sulfonic acid [2-(7-amino-8-benzyl-5,6,7,8-tetrahydro-naphthalen-2-yloxy)ethyl]-cyclopropyl-amide hydrochloride]"
